# Measurements from publication PMC6117024, “NOP receptor pharmacological profile – A dynamic mass redistribution study” (PLoS ONE, 2018).
# Legend:
# [1] = biological target: human Nociceptin/Orphanin FQ (N/OFQ) peptide NOP receptor (human) (UniProt P41146)
# [2] = biological target: human Nociceptin/Orphanin FQ (N/OFQ) peptide NOP receptor (human) (UniProt P41146); remark: listed apart in the source
# [3] = biological target: T1, human NOP receptor (Homo sapiens, UniProt P41146); test: DMR assay in CHONOP cells, agonist effects; conditions: for DMR response, CHONOP: pm ± sem; for Emax: DMR maximal effect; for maximal effects compared with N/OFQ: DMR; for pEC50: DMR peak, at least 3 experiments in triplicate, inactive = no DMR response up to 1 μM, parentheses: CL95% (Fig 3)
# T1 sequence (P41146 whole entry): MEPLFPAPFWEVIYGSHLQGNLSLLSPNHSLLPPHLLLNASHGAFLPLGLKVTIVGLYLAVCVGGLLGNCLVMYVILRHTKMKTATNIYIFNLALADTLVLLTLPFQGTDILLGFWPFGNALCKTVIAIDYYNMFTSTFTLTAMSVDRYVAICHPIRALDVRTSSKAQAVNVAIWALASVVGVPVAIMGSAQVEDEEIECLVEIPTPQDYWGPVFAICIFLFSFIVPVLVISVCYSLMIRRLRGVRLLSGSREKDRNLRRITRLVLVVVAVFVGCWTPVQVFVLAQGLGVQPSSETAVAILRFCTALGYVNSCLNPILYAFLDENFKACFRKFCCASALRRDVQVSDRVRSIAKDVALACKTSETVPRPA
# [4] = test system: CHO cells; test: DMR in wild type CHO cells; conditions: for DMR response, CHO: CHO cells, pm ± sem
# [5] = test system: NOP receptor (control neurons); conditions: electrophysiology; cited from earlier work
# [6] = test system: NOP receptor (transfected neurons); conditions: electrophysiology; cited from earlier work
# [7] = biological target: T1, human NOP receptor; assay type: cell-based; set-up: expressed in transfected cells; conditions: comparison N/OFQ and Ac-RYYRIK-NH2
# [8] = test system: NOP receptor; conditions: cited from earlier work
# Excerpt: This is in general in line with literature reports (see Table 2 of [3] that summarizes the action of these compounds in various assays/preparations at human recombinant and rodent native NOP receptors). However, there are some aspects that deserve attention.
# [9] = biological target: T1, human NOP receptor; test: DMR assay in CHONOP cells, antagonism of agonist concentration response curve
# [10] = biological target: mu opioid receptor (UniProt P35372)
# Chain of mu opioid receptor (P35372 whole entry): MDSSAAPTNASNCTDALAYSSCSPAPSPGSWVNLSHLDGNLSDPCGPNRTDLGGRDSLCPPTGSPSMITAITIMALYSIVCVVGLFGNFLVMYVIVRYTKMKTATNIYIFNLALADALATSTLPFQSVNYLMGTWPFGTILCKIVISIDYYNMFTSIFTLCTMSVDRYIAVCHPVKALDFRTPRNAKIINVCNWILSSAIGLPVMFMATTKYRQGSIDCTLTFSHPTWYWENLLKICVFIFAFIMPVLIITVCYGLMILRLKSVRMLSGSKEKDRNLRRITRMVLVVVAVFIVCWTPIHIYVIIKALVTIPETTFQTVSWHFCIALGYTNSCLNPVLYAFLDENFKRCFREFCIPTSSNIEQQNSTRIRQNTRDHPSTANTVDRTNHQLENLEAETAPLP
# [11] = biological target: T1, human NOP receptor; test: Classical Schild protocol, DMR in CHONOP cells
# [12] = CHONOP cells, 100 μM, * p < 0.05 vs buffer
# [13] = 1 μM, 37°C, * p < 0.05 vs buffer (one-way ANOVA, Dunnett's)
# [14] = CHONOP cells, 1 μM, 37°C, * p < 0.05 vs buffer (one-way ANOVA, Dunnett's)
# Chain of human Nociceptin/Orphanin FQ (N/OFQ) peptide NOP receptor (human) (P41146 whole entry): as the sequence (P41146 whole entry) above
compound,measurement,setting,value
PWT2-N/OFQ (peptide),"DMR response at 0.1 μM, CHONOP cells",[1],198 pm
same,"intrinsic activity α (Emax relative to N/OFQ), DMR, CHONOP cells (relative to N/OFQ)",[2],0.97
same,"pEC50 of the DMR response (peak), CHONOP cells, tested up to 0.1 μM",[2],8 -log10(M)
[Nphe^1]N/OFQ(1–13)-NH2 (peptide),"DMR response at 1 μM, CHONOP cells",[1],180 pm
[F/G]N/OFQ(1–13)-NH2 (peptide),"DMR response at 1 μM, CHONOP cells",[1],200 pm
same,"intrinsic activity α (Emax relative to N/OFQ), DMR, CHONOP cells (relative to N/OFQ)",[2],0.98
same,"pEC50 of the DMR response (peak), CHONOP cells",[2],8.06 -log10(M)
Nc1ncnc2c1ncn2[C@@H]1O[C@H](COP(=O)(O)OP(=O)(O)OP(=O)(O)O)[C@@H](O)[C@H]1O [ATP],"DMR response, CHONOP",[3]; [12],185±12 ^* pm
same,"DMR response, CHO","[4]; 100 μM, * p < 0.05 vs buffer",177±15 ^* pm
"[Arg^14,Lys^15]N/OFQ (peptide)","DMR response at 1 μM, CHONOP cells",[1],271 pm
UFP-112 (peptide),"DMR response at 1 μM, CHONOP cells",[1],248 pm
same,"intrinsic activity α (Emax relative to N/OFQ), DMR, CHONOP cells (relative to N/OFQ)",[2],1.21
same,"pEC50 of the DMR response (peak), CHONOP cells",[2],8.66 -log10(M)
C=CCN1CC[C@]23c4c5ccc(O)c4O[C@H]2C(=O)CC[C@@]3(O)[C@H]1C5 [Naloxone],"DMR response, CHO",[4]; [13],23±5 pm
UFP-101 (peptide),"DMR response at 1 μM, CHONOP cells (not marked as different from buffer)",[1],40 pm
same,"pKB (antagonist potency): rightward shift by 1 μM UFP-101 of the concentration response curve to N/OFQ at the NOP receptor, DMR, CHONOP cells",[2],7.6 -log10(M)
C=C[C@@]1(C)CC(=O)[C@]2(O)[C@@]3(C)[C@@H](O)CCC(C)(C)[C@@H]3[C@H](O)[C@H](OC(C)=O)[C@@]2(C)O1 [FSK],"DMR response, CHONOP",[3]; [12],-164±15 ^* pm
same,"DMR response, CHO","[4]; 100 μM, * p < 0.05 vs buffer",-172±23 ^* pm
CCn1c(=O)n(C2=C(CO)CN(CC3CCCCCCC3)CC2)c2ccccc21 [Trap-101],activity in control neurons,[5],pure antagonists
same,activity in NOP transfected neurons,[6],inverse agonists
CC[C@H](C)[C@H](NC(=O)[C@H](CCCNC(=N)N)NC(=O)[C@H](Cc1ccc(O)cc1)NC(=O)[C@H](Cc1ccc(O)cc1)NC(=O)[C@H](CCCNC(=N)N)NC(C)=O)C(=O)N[C@@H](CCCCN)C(N)=O [Ac-RYYRIK-NH2],intrinsic activity (α),[3],0.89
same,Emax,[3]; CHONOP cells,182
same,"DMR response, CHONOP",[3]; [14],182±11 ^* pm
same,maximal effects compared with N/OFQ,[3]; CHONOP,not statistically different to those of N/OFQ
same,negative DMR signal,"[3]; after 1000 sec, in some but not all experiments",concentration dependent negative signal after 1000 sec
same,"DMR response, CHO",[4]; [13],17±8 pm
same,sensitivity of DMR response to PTX,[7],equally sensitive to PTX
same,"efficacy vs N/OFQ, GTPγS binding",[8],significantly lower efficacy than N/OFQ
same,"efficacy vs N/OFQ, NOP/G protein interaction",[8],significantly lower efficacy than N/OFQ
same,sensitivity of DMR response to SB-612111,[9]; comparison N/OFQ and Ac-RYYRIK-NH2,equally sensitive to PTX and to the NOP selective antagonist SB-612111
Dermorphin (peptide),"pEC50 of the DMR response, CHO cells expressing the mu opioid receptor",[10],8.59 -log10(M)
O=C1NCN(c2ccccc2)C12CCN(C1Cc3cccc4cccc1c34)CC2 (centres unmarked) [Ro 65–6570],activity in wild type CHO cells,[4]; 10 μM,exhibited a DMR response in wild type CHO cells
same,"DMR response, CHO",[4]; [13],23±8 pm
Ac-RYYRIK-NH2 (peptide),"DMR response at 1 μM, CHONOP cells",[1],182 pm
"C[C@H](NC(=O)CNC(=O)[C@@H](NC(=O)[C@H](Cc1ccccc1)NC(=O)CNC(=O)CNC(=O)CNCc1ccccc1)[C@@H](C)O)C(=O)N[C@@H](CCCNC(=N)N)C(=O)N[C@@H](CCCCN)C(=O)N[C@@H](CO)C(=O)N[C@@H](C)C(=O)N[C@@H](CCCNC(=N)N)C(=O)N[C@@H](CCCCN)C(=O)N[C@@H](CCCNC(=N)N)C(=O)N[C@@H](CCCCN)C(=O)N[C@@H](CC(N)=O)C(=O)N[C@@H](CCC(N)=O)C(N)=O [UFP-101, [Nphe1,Arg14,Lys15]nociceptin-NH2]",pEC50,"[3]; CHONOP cells, 37°C",crc incomplete
same,stimulatory effect per se,"[3]; CHONOP, % of the maximal effects of N/OFQ",~20%
same,Kb,[9],25.1 nM
"Cc1cccc2c1CC[C@H](CN1CCC(c3c(Cl)cccc3Cl)CC1)C[C@@H]2O [SB-612111, (-)-cis-1-methyl-7-[[4-(2,6-dichlorophenyl)piperidin-1-yl]methyl]-6,7,8,9-tetrahy dro-5H-benzocyclohepten-5-ol]",effect per se in CHONOP cells,[3]; CHONOP cells,did not produce any effect per se
same,pEC50,"[3]; CHONOP cells, 37°C",inactive
same,"DMR response, CHONOP",[3]; [14],-10±9 pm
same,"DMR response, CHO",[4]; [13],26±3 pm
same,effect on N/OFQ maximal effects (Schild),[11]; 10 nM–1 μM,without significantly affecting its maximal effects
same,Schild slope,"[11]; vs N/OFQ, Schild plot",~1
CC(C)C1CCC(N2CCC(N3C(=O)C(=O)c4ccccc43)CC2)CC1 (centres unmarked) [AT-090],intrinsic activity (α),[3],1.23
same,Emax,[3]; CHONOP cells,252
same,"DMR response, CHONOP",[3]; [14],252±15 ^* pm
same,maximal effects compared with N/OFQ,[3]; CHONOP,not statistically different to those of N/OFQ
same,"DMR response, CHO",[4]; [13],21±3 pm
same,"efficacy vs N/OFQ, GTPγS binding",[8],significantly lower efficacy than N/OFQ
same,"efficacy vs N/OFQ, NOP/G protein interaction",[8],significantly lower efficacy than N/OFQ
